Measurements taken from patent US12329736B2, “Carboxylate ligand modified ferric iron hydroxide compositions for use in the treatment or prevention of iron deficiency associated with liver diseases” (Nemysis Ltd., priority 2020, dated 2025).
“Also recorded” adds a separate entry of the source.

Details: Wistar rats
Description: 5-6 week old Wistar rats (n=72; 36 female and 36 male) were housed in harmonious social groups (2-3 animals per cage and sex) in a light- and temperature-controlled room with ad libitum access to standard pellet diet and water. Rats were acclimatised for 7 days for male rats and 14 days for female rats, prior to treatment commencement.
Animals were gavaged for 28 days (n=36; 18 female and 18 male) or 90 days (n=36; 18 female and 18 male). Following necropsy, livers were harvested, flash frozen in liquid nitrogen and stored at −80° C. until further analysis.
Livers were thawed at room temperature, and a sample of approximately 800 mg was cut out, cleaned from any fat and weighed on a balance accurate to 0.0001 g. Weighed samples were digested in concentrated HNO3 (Nitric acid ≥65%, 84380-2.5L-M, Merck) and H2O2 (Hydrogen peroxide solution, 16911-1L-F, Sigma-Aldrich) at a 5:1 ratio. Samples were digested at room temperature for 24 h and if necessary at 40° C. for another 24 h to allow complete digestion. Following complete digestion samples were diluted 1:4 in UHP water to achieve a final HNO3 concentration of 6-8%. Total elemental analysis for iron was carried out on a Jobin Yvon Horiba Ultima 2C ICP-OES (Instrument SA, Longjumeau, France), equipped with a concentric nebulizer and cyclonic spray chamber. Analysis was by peak profile with a window size of 0.025 nm with 21 increments per profile and an integration time of 0.5 seconds per increment. Analytical line was 259.940 nm. Samples and blanks were analysed with iron standards (0-20 mg/L) prepared in 6-8% HNO3, using a 1000 mg/L Fe ICP solution. Pooled-sample standards (0-20 mg/L) were prepared, using a pool of all final digests, to allow detection of possible matrix effects. Each sample/blank/standard was analysed in triplicates and the average value used for the calculations. The sample induction system (sample tubing, nebuliser and spray chamber) was thoroughly flushed between samples, blanks and standards.
Statistical analyses were performed in GraphPad Prism 6. One-way ANOVA, followed by Tukey's multiple comparison's test, was used to assess the treatment effect, irrespective of the length of treatment. Two-way ANOVA was used to assess the effects of time (i.e. treatment length), treatment and the time x treatment interactions, followed by Bonferroni's multiple comparisons test. Two-way ANOVA was also used to assess the effect of sex, treatment and the sex x treatment interaction. P values <0.05 were considered significant in all analyses. Data are presented as means±SDs.

For `O=S(=O)([O-])[O-].[Fe+2]` [FeSO4, ferrous sulphate], the “Accumulation of liver iron over time with repeated oral dosing” value (28 days versus 90 days of oral administration, FIG. 1B) was “iron seems to accumulate over time; also recorded: does accumulate” and the “Total iron content in liver samples versus vehicle control group” value (daily oral gavage 28 or 90 days, IHAT 28.5 mg iron/kg, FeSO4 20.00 mg iron/kg, FIG. 1A) was “significantly increased; also recorded: significant difference”.
